We go through six molecules from US4070245A, “Substrate for the quantitative determination of proteolytic enzymes” (Pentapharm A.G., priority 1975, dated 1978).

Counter-ions that a name gives are not always drawn. Where a SMILES comes first, the peptide text is derived from it. The star is where a group is joined. pNA = O=[N+]([O-])c1ccc(N*)cc1; Tos = Cc1ccc(S(=O)(=O)*)cc1; Cbz = O=C(OCc1ccccc1)*; Bz = O=C(c1ccccc1)*

The target of one data set is T1, human ecarin-thrombin (Homo sapiens, UniProt P00734).
T1 construct: 0.28 NIH/ml of human ecarin-thrombin
The data set is described as follows: Enzymatic release of p-nitroaniline from substrate by human ecarin-thrombin. Particulars: substrate concentration 10^-4 M; pH 8.4, ionic strength 0.15, 37° C. The data set is classed as biochemical.

The next data set concerns the target human thrombin coagulase (Homo sapiens, UniProt P00734). The data set is described as follows: Enzymatic release of p-nitroaniline from substrate by human thrombin coagulase (staphylo-thrombin). The following applies: substrate concentration 10^-4 M; pH 8.4, ionic strength 0.15, 37° C. Type of data set: biochemical.
Data set [1] concerns the target batroxobin (thrombin-like enzyme from venom of Bothrops moojeni) (Bothrops atrox, UniProt P04971). The data set is classed as biochemical. Particulars: pH 8.4.
Another data set in a line: Solubility in water. Type of data set: physicochemical. The following applies: for solubility: water.
The target in data set [2] is T2, human thrombin (Homo sapiens, UniProt P00734).
T2 construct: 0.56 NIH/ml of human thrombin
Nature of the data set: Enzymatic release of split product NH2-R2 from chromogenic/fluorogenic substrate by human thrombin. Type of data set: biochemical. Particulars: in words, from Table 1. As for the experimental part: The degree of the enzymatic hydrolysis of the substrate, which is proportional to the quantity of p-Nitroaniline formed, can be easily determined by spectrophotometric measurement at 405 nm. […] The conditions are practically the same for the other substrates carrying a p-nitroanilino group as a chromogenic group. The spectrophotometric measurement was therefore, carried out in all cases at 405 nm.
The mixture was pre-incubated for 2 minutes at 37° C. […] The increase in the absorption was measured spectrophotometrically at 405 nm and continuously followed by means of a recording device. The measuring results listed in Tables 1 and 2 were all obtained under the test conditions defined above. The quantity of the formed split product NH2 --R^2 is a measure for the susceptibility of the substrate to the enzymes. […] For determining the quantity (nanomole) of p-napthylamine and 4-methoxy-β-naphthylamine (substrates XII to XV, XVIII and XIX), respectively, formed per minute the samples were irradiated in a fluorescence photometer with light having a wave length of 350 nm. The quantity of the formed split product was determined by measuring the intensity of the light emitted at 420 nm.

For data set [3], the target named is T2, human thrombin. Nature of the data set: Km and vmax from Lineweaver-Burk diagram, human thrombin. Type of data set: biochemical. Particulars: ionic strength 0.15, pH 8.4, 37° C; for Km: tris-imidazole buffer, graphically from Lineweaver-Burk diagram; for vmax: value marked NIH. As for the experimental part:
(§1) As is evident from equation (2) constants Km and k3 determine the activity of the enzyme substrate for a given enzyme. For determining these constants the following procedure is followed:
(§2) The enzyme and the substrate are mixed in a buffer solution, and the reaction is followed spectrophotometrically for 2 to 30 minutes. The concentration of substrate [S] is varied, whereas the enzyme concentration [E] is kept constant. If the extinction (OD) (= optical density) is plotted in a co-ordinate system as a function of time, a curve is obtained the tangent of which (difference in extinction per minute, Δ OD/minute, from which the quantity in μmoles of pNA/min (v) can be calculated) at time zero corresponds to the ideal course of the hydrolysis. By means of this tangent the initial rate of the hydrolysis can be determined.
Km and vmax were determined for the enzymes by means of the LineweaverBurk equation (the Lineweaver-Burk diagram is shown in FIG. 7 of the drawings attached to the specification). […] According to the same principle Km and vmax were determined for the other enzymes. All determinations were carried out in trisimidazole buffer at an ionic strength of 0.15 and a pH of 8.4 at 37° C.

The target in a further data set is T3, human plasmin (Homo sapiens, UniProt P00747).
T3 construct: 0.4 CU/ml of human plasmin
Nature of the data set: Km and vmax from Lineweaver-Burk diagram, human plasmin. Particulars: value marked CU, ionic strength 0.15, pH 8.4, 37° C. The data set is classed as biochemical. As for the experimental part:
as §1, §2
(§3) If 1/v is plotted against 1/[S], a Lineweaver-Burk diagram (cf. "Kurzes Lehrbuch der Biochemie" by P. KARSON, Georg Thieme-Verlag, Stuttgart, 1967., p. 70) is obtained from which vmax and Km can be determined graphically. [formula] were determined with N^α-Cbo-Gly-Pro-Arg-pNA.HCl (substrate according to Example 1) for human thrombin, human plasmin and bovine trypsin. Km and vmax were determined for the enzymes by means of the LineweaverBurk equation (the Lineweaver-Burk diagram is shown in FIG. 7 of the drawings attached to the specification). […]

The target of a further data set is T4, bovine trypsin (Bos taurus, UniProt P00760).
T4 construct: 1.8 NF/ml of bovine trypsin
T4 sequence (P00760 24-246): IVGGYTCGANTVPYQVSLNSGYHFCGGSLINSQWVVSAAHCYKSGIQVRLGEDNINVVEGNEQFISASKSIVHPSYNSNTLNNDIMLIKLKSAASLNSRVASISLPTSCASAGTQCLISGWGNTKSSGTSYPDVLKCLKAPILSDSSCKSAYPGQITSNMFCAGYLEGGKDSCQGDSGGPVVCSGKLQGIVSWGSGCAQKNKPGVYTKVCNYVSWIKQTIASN
Nature of the data set: Km and vmax from Lineweaver-Burk diagram, bovine trypsin. Type of data set: biochemical. The following applies: value marked NF, ionic strength 0.15, pH 8.4, 37° C. As for the experimental part:
as §1, §2, §3

Substrate in data set [4]: Cc1ccc(S(=O)(=O)NCC(=O)N2CCC[C@H]2C(=O)N[C@@H](CCCNC(=N)N)C(=O)Nc2ccc([N+](=O)[O-])cc2)cc1
The data set is described as follows: Km and vmax from Lineweaver-Burk diagram, human plasmin. Particulars: other: human plasmin, tris-imidazole buffer, ionic strength 0.15, pH 8.4, 37° C. The data set is classed as biochemical. As for the experimental part:
as §1, §2, §3

Substrate in data set [5]: N=C(N)NCCC[C@H](NC(=O)[C@@H]1CCCN1C(=O)CNC(=O)OCc1ccccc1)C(=O)Nc1ccc([N+](=O)[O-])cc1
The description is as above. Type of data set: biochemical. The following applies: other: human plasmin, tris-imidazole buffer, ionic strength 0.15, pH 8.4, 37° C. The procedure: as §1, §2, §3

Sequence of batroxobin (thrombin-like enzyme from venom of Bothrops moojeni) (P04971 25-255 limits assumed): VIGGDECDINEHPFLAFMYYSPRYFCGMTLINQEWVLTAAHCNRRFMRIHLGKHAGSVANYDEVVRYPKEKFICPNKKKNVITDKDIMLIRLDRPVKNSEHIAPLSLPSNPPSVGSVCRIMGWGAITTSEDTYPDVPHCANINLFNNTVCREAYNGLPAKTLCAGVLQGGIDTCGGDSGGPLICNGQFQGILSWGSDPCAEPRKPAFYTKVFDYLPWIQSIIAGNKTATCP

`CC(C)[C@H](NC(=O)[C@H](Cc1ccccc1)NC(=O)c1ccccc1)C(=O)N[C@@H](CCCNC(=N)N)C(=O)Nc1ccc([N+](=O)[O-])cc1` [N^α -Bz-Phe-Val-Arg-pNA . HCl, N^α -Bz-Phe-Val-Arg-pNA.HCl, reference compound] (Bz-Phe-Val-Arg-pNA): the “Quantity of p-nitroaniline enzymatically split off from the substrate in 1 minute by the quantity of human ecarin-thrombin corresponding to 1 NIH” value on human ecarin-thrombin was 30.7 nmol. In addition, the “Quantity of p-nitroaniline enzymatically split off from the substrate in 1 minute by the quantity of human thrombin coagulase corresponding to 1 NIH” value at human thrombin coagulase was 102 nmol. Also, the “Quantity of p-nitroaniline enzymatically split off from the substrate in 1 minute by the quantity of batroxobin corresponding to 1 NIH” value in [1] is 3.26 nmol. In “Solubility in water”, this molecule had a solubility of around 1000 µg/mL.

Regarding `N=C(N)NCCC[C@H](NC(=O)[C@@H]1CCCN1C(=O)CNC(=O)OCc1ccccc1)C(=O)Nc1ccc([N+](=O)[O-])cc1` [Substrate I, N^α -Cbo-Gly-Pro-Arg-pNA.HCl] (Cbz-Gly-Pro-Arg-pNA), the “susceptibility to human thrombin compared with N^α -Bz-Phe-Val-Arg-pNA.HCl” value on human thrombin [2] was “much higher”. In addition, the “Quantity of p-nitroaniline enzymatically split off from the substrate in 1 minute by the quantity of human ecarin-thrombin corresponding to 1 NIH” value on human ecarin-thrombin amounted to 246.4 nmol. For the same molecule, at human thrombin coagulase, the “Quantity of p-nitroaniline enzymatically split off from the substrate in 1 minute by the quantity of human thrombin coagulase corresponding to 1 NIH” value was 575 nmol. Further, the “Quantity of p-nitroaniline enzymatically split off from the substrate in 1 minute by the quantity of batroxobin corresponding to 1 NIH” value in data set [1] amounted to 15.81 nmol. Further, the Km on human thrombin [3] came out at 57.1 µM. Besides, the vmax at human thrombin [3] turned out to be 0.0534 µmol/L; on human plasmin, 0.673 µmol/L; at bovine trypsin, 0.0427 µmol/L. For the same molecule, the “solubility in water relative to Bz-Phe-Val-Arg-pNA.HCl” value in the data set “Solubility in water” (ratio to prior art thrombin substrate) came to 4 times. This molecule also came in with a solubility in the data set “Solubility in water” above 4000 µg/mL.

Consider `Cc1ccc(S(=O)(=O)NCC(=O)N2CCC[C@H]2C(=O)N[C@@H](CCCNC(=N)N)C(=O)Nc2ccc([N+](=O)[O-])cc2)cc1` [Substrate VII, n^α -tos-Gly-Pro-Arg-pNA.HCl] (Tos-Gly-Pro-Arg-pNA), for which, on human thrombin [2], the “susceptibility to human thrombin compared with N^α -Bz-Phe-Val-Arg-pNA.HCl” value is “much higher”. Besides, at human thrombin [3], the Km was 17 µM. The vmax was 0.0757 µmol/L at human thrombin [3], 0.618 µmol/L on human plasmin and 0.0297 µmol/L on bovine trypsin.

On to `N=C(N)NCCC[C@H](NC(=O)[C@@H]1CCCN1C(=O)CNS(=O)(=O)c1ccccc1)C(=O)Nc1ccc([N+](=O)[O-])cc1` [Substrate VIII, n^α -benzenesulfonyl-Gly-Pro-Arg-pNA.NCl], for which the “susceptibility to human thrombin compared with N^α -Bz-Phe-Val-Arg-pNA.HCl” value at human thrombin [2] is listed as “much higher”.

Regarding `CC(C)COC(=O)NCC(=O)N1CCC[C@H]1C(=O)N[C@@H](CCCNC(=N)N)C(=O)Nc1ccc([N+](=O)[O-])cc1` [Substrate XI, n^α -isobutyloxycarbonyl-Gly-Pro-Arg-p-Na.HCl], the “susceptibility to human thrombin compared with N^α -Bz-Phe-Val-Arg-pNA.HCl” value on human thrombin [2] is on record as “much higher”.

B1: human plasmin (Homo sapiens) (protein)
chain 1: VVGGCVAHPHSWPWQVSLRTRFGMHFCGGTLISPEWVLTAAHCLEKSPRPSSYKVILGAHQEVNLEPHVQEIEVSRLFLEPTRKDIALLKLSSPAVITDKVIPACLPSPNYVVADRTECFITGWGETQGTFGAGLLKEAQLPVIENKVCNRYEFLNGRVQSTELCAGHLAGGTDSCQGDSGGPLVCFEKDKYILQGVTSWGLGCARPNKPGVYVRVSRFVTWIEGVMRNN
chain 2: KVYLSECKTGNGKNYRGTMSKTKNGITCQKWSSTSPHRPRFSPATHPSEGLEENYCRNPDNDPQGPWCYTTDPEKRYDYCDILECEEECMHCSGENYDGKISKTMSGLECQAWDSQSPHAHGYIPSKFPNKNLKKNYCRNPDRELRPWCFTTDPNKRWELCDIPRCTTPPPSSGPTYQCLKGTGENYRGNVAVTVSGHTCQHWSAQTPHTHNRTPENFPCKNLDENYCRNPDGKRAPWCHTTNSQVRWEYCKIPSCDSSPVSTEQLAPTAPPELTPVVQDCYHGDGQSYRGTSSTTTTGKKCQSWSSMTPHRHQKTPENYPNAGLTMNYCRNPDADKGPWCFTTDPSVRWEYCNLKKCSGTEASVVAPPPVVLLPDVETPSEEDCMFGNGKGYRGKRATTVTGTPCQDWAAQEPHRHSIFTPETNPRAGLEKNYCRNPDGDVGGPWCYTTNPRKLYDYCDVPQCAAPSFDCGKPQVEPKKCPGR
notes: 0.4 CU/ml of human plasmin
For the molecule B1, the values for the Km in data set [4] and in data set [5] were 323 µM and 357 µM, respectively.
